Results published in US8242055B2, “Herbicidally and insecticidally active phenyl-substituted pyridazinones” (Bayer Cropscience AG, priority 2008, dated 2012).

Experiments:
[1] = system: eggs of the tobacco bud worm (Heliothis virescens); assay: Heliothis virescens test (spray treatment); type: in vivo; conditions: spray treatment of soybean leaves, application rate 500 g/ha, after 7 days; 100% = all eggs killed
Description: [table] To produce a suitable preparation of active compound, 1 part by weight of active compound is mixed with the stated amounts of solvents and emulsifier, and the concentrate is diluted with emulsifier-containing water to the desired concentration. Soybean leaves (Glycine max.) are sprayed with an active compound preparation of the desired concentration and, after drying, populated with eggs of the tobacco bud worm (Heliothis virescens). After 7 days, the effect in % is determined. 100% means that all the eggs have been killed; 0% means that none of the eggs have been killed.

Meloidogyne incognita = Meloidogyne incognita test (MELGIN); type: in vivo; conditions: application rate 20 ppm, lettuce roots; 100% = no galls formed
Description: [table] To produce a suitable preparation of active compound, 1 part by weight of active compound is mixed with the stated amounts of solvents and emulsifier, and the concentrate is diluted with water to the desired concentration. Containers are filled with sand, solution of active compound, Meloidogyne incognita egg/larvae suspension and lettuce seeds. The lettuce seeds germinate and the plants develop. On the roots, galls are formed. After the desired period of time, the nematicidal activity is determined in % by the formation of galls. 100% means that no galls are formed; 0% means that the number of galls on the treated plants corresponds to that of the untreated control.

Structure (SMILES): Cn1ncc(O)c(-c2ccc(Cl)c(Cl)c2)c1=O [I-1-a-4, 4-(3,4-dichlorophenyl)-5-hydroxy-2-methyl-3(2H)-pyridazinone]
- melting point: 315 °C

Structure (SMILES): CC(C)(C)n1ncc(O)c(-c2ccc(Cl)cc2Cl)c1=O [I-1-a-5]
- effect in % (eggs killed) [1]: at least 80%

Structure (SMILES): CC(C)(C)n1ncc(O)c(-c2cc(-c3ccc(Cl)cc3)ccc2Cl)c1=O [I-1-a-10]
- nematicidal activity in % by the formation of galls (Meloidogyne incognita): at least 80%
